As a reminder, the MIC is the least concentration at which growth counts as inhibited.

Holding throughout (format): cell-based
One experiment relates to Acinetobacter baumannii. The experiment can be described thus: MIC agar dilution, micro-organism 10 (19606). Particulars: Acinetobacter baumannii 19606. As to the method: (§1) Throughout the period of testing the microbial strains were subcultured and incubated for 18-20 hours at 37° C. on a weekly basis. Horse blood agar plates were used to sustain the micro-organisms both prior to and throughout testing. The alkoxylated alkanols listed in Table II below were obtained (these are obtainable from Sigma-Aldrich Company Ltd, Dorset, England), each having a GC purity of at least 97%.
(§2) Molar equivalent concentrations were used to allow comparison between compounds of differing molecular mass. Due to weighing difficulties, any compound in solid form was melted in a water bath prior to dilution. To make ten-times strength concentrations, which takes into account agar dilution, 0.0352 mmol of each compound was weighed into plastic universal bottles and 4 mL of sterile distilled water (SDW) was added. To produce a homogenous emulsion the universals were vortexed; once achieved the emulsions were serial diluted by adding 2 mL to 2 mL of SDW.
(§3) Myristyl alcohol and lauryl alcohol were re-weighed and dissolved in 25 μL of the polar solvent 1-methyl-2-pyrrolidone (M6762; Sigma-Aldrich) in sterile glass universals due to an inability to achieve an even suspension. To maintain an even emulsion in the presence of SDW 37.5 μL of the non-ionic detergent Tween 20 (P1379, Sigma-Aldrich) was also added. 3.9375 mL of SDW was added to these, to create a 4 mL volume; they were vortexed and diluted as before.
(§4) For every 100 mL of Isosensitest agar (IST) (CM0471; Oxoid, Basingstoke, England), 3.1 g of the IST powder was added to 100 mL SDW (as per manufacturer's instructions) and sterilised for 15 minutes at 121° C. Once sterilised, the molten agar was cooled to 50° C. in a water-bath. Subsequently 4.8 g of CCEY powder (BC2160; Bioconnections, Wetherby, England), also known as Brazier's medium, was added to 100 mL SDW for every 100 mL of agar needed. This was then sterilised for 15 minutes at 121° C. Once sterilised the molten agar was cooled to 50° C. in a water-bath and 4 mL of egg-yolk emulsion (S2073; TCS Biosciences Ltd, Buckingham, United Kingdom) and 1 mL of lysed defibrinated horse blood (HB035; TCS Biosciences Ltd, Buckingham, United Kingdom) were also added for every 100 mL needed. Horse blood lysis is achieved by dilution to half concentration with SDW; when fully lysed the mixture will turn dark red in colour.
(§5) 18 mL agar was added to each universal and then poured into sterile Petri dishes. This step creates a 1/10 dilution resulting in agar plates of the required strength. Control plates for each set of strains were created by adding 18 mL of agar to 2 mL of SDW.
(§6) Suspensions of each bacterial species were prepared with a density equal to that of a 0.5 McFarland standard using a densitometer. All suspensions were made using sterile distilled water and fresh 18-20 hour cultures. As a 0.5 McFarland standard contains 1.5×10^8 CFU/mL and the multipoint inoculators applies 1 μL spots of liquid, each bacterial suspension was diluted 1/15 (20 μL suspension to 280 μL sterile distilled water).
(§7) Bacterial suspensions were prepared from fresh 18-24 hour cultures as previously described. 1 μL of each strain was inoculated onto all 100 agar plates containing a different chemical concentration and the 2 control plates. This was done using a multipoint inoculator which inoculates 20 strains per plate. All plates were incubated for 22 hours at 37° C. in aerobic conditions.
(§8) Each plate was examined for bacterial growth after 22 and 48 hours, with each being incubated in between examinations. A positive result was recorded as growth of ≧10 colonies. A negative result was recorded as growth of <10 colonies as this is equivalent to 99.9% inhibition. The lowest concentration of chemical that inhibited growth was recorded as the MIC. The results are recorded in Table IV below, where the numbers are quoted in mmol/L.
(§9) Further experiments have also been conducted to determine the MIC of a number of other compositions as follows. […]
(In agar dilution, organisms are placed on agar that contains the substance at set levels.)

Another experiment relates to Klebsiella pneumoniae. As to the kind of experiment: MIC agar dilution, micro-organism 2 (9528). The conditions noted are these: Klebsiella pneumoniae 9528. As for the experimental part: as §1, §2, §3, §4, §5, §6, §7, §8, §9
The subject of a further experiment is Pseudomonas aeruginosa. The experiment can be described thus: MIC agar dilution, micro-organism 7 (10662). The conditions noted are these: Pseudomonas aeruginosa 10662. As to the method:
as §1, §2, §3, §4, §5, §6, §7, §8, §9

A further experiment deals with Serratia marcescens. The experiment can be described thus: MIC agar dilution, micro-organism 5 (10211). Particulars: Serratia marcescens 10211. As for the experimental part: as §1, §2, §3, §4, §5, §6, §7, §8, §9
The next experiment relates to Burkholderia cepacia. The experiment can be described thus: MIC agar dilution, micro-organism 9 (1222). The conditions noted are these: Burkholderia cepacia 1222. As to the method:
as §1, §2, §3, §4, §5, §6, §7, §8, §9

The test system of experiment [1] is Stenotrophomonas maltophilia. As to the kind of experiment: Additional antibacterial data, MIC (Table XII). The conditions noted are these: 24 hrs at 37° C.; for MIC (%) volume/volume: Stenotrophomonas maltophilia 10257, inoculum 10000 cfu/spot. As for the experimental part:
(§10) Using the protocols outlined in the example above, the inventors further investigated the antibacterial effects of representative alkoxylated alkanol compounds. The inoculum was 10000 cfu/spot; inclubation was for 24 hrs at 37° C.

The next experiment relates to Gram-negative species. The experiment can be described thus: Additional antibacterial data, MIC (Table XII). Particulars: 24 hrs at 37° C.; for MIC (%) volume/volume: inoculum 10000 cfu/spot. As to the method: as §10
Experiment [2] has as its system Respiratory Syncytial Virus (RSV), strain A2. As to the kind of experiment: Antiviral: cytopathic effect of RSV on A549 cells. Particulars: for Cytopathic effect (cpe): added 1 hour after virus absorption, 96 hours at 33° C., versus untreated lane. As to the method: A549 (ATCC CCL-185) cells were plated onto a 96 well and allowed to attach overnight, the wells were washed, and 100 ul of DMEM (Gibco) with 2% FCS was added. To the first column of the data set below, 100 μl of neat virus was added. The virus used was Respiratory Syncytial Virus (RSV), strain A2, a common laboratory strain which retains the ability to infect animal models.
A two serial dilution was performed (up to column 10), lanes 11+12 were uninfected controls, but relevant lanes contained the appropriate concentration of Laureth 4, laureth 4 was added 1 hour after virus absorption. The alkoxylated alkanol compounds used in the experiment were ‘high purity’, i.e. having a GC purity of at least 97%.
After 96 hours incubation at 33° C. the medium was removed, cell washed with PBS and stained with methylene blue (Gibco). Cytopathic effect (cpe) was noted visually and wells marked either as positive or negative when view under a light microscope at 4× magnification.

The test system of experiment [3] is Staphylococcus aureus(MRSA). As to the kind of experiment: Additional antibacterial data, MIC (Table XII), Gram positive control. The conditions noted are these: Staphylococcus aureus(MRSA) 380022E (control); inoculum 10000 cfu/spot; 24 hrs at 37° C. As to the method:
as §10

The test system of another experiment is Staphylococcus aureus. The experiment is described as above. The conditions noted are these: Staphylococcus aureus 470273M (control); inoculum 10000 cfu/spot; 24 hrs at 37° C. As for the experimental part:
as §10

≈ marks a conversion by molar mass, not a printed value. Like-named read-outs stand apart in the source and are kept apart here.

As for `CCCCCCCCCCCCCOCCOCCOCCOCCOCCOCCO` [C13E6, polyoxyethylene (6) tridecyl alcohol], the MIC against Acinetobacter baumannii (22 hrs), against Acinetobacter baumannii (48 hrs), in the experiment with Klebsiella pneumoniae (22 hrs), in the experiment with Klebsiella pneumoniae (48 hrs), in the experiment on Pseudomonas aeruginosa (22 hrs) and against Pseudomonas aeruginosa (48 hrs) was more than 0.88 mmol/L throughout. The MIC against Serratia marcescens (22 hrs), with Serratia marcescens (48 hrs), in the experiment with Burkholderia cepacia (22 hrs) and against Burkholderia cepacia (48 hrs) was more than 0.88 mmol/L in each case.
As to `CCCCCCCCCCCCCCCCO` [C0, 1-Hexadecanol, reference compound], the MIC in the experiment with Acinetobacter baumannii (22 hrs, read-out: MIC) was more than 0.88 mmol/L; in the experiment with Acinetobacter baumannii (48 hrs, read-out: MIC), more than 0.88 mmol/L; in the experiment with Klebsiella pneumoniae (22 hrs, read-out: MIC) it was 0.88 mmol/L (≈ 213 µg/mL); in the experiment on Klebsiella pneumoniae (48 hrs, read-out: MIC), 0.88 mmol/L (≈ 213 µg/mL); with Pseudomonas aeruginosa (22 hrs, read-out: MIC), more than 0.88 mmol/L; in the experiment with Pseudomonas aeruginosa (48 hrs, read-out: MIC) it was more than 0.88 mmol/L. Moreover, the minimal inhibitory concentration (MIC) is more than 0.88 mmol/L in the experiment with Serratia marcescens (22 hrs, read-out: MIC); more than 0.88 mmol/L in the experiment with Serratia marcescens (48 hrs, read-out: MIC); more than 0.88 mmol/L in the experiment with Burkholderia cepacia (22 hrs, read-out: MIC); more than 0.88 mmol/L in the experiment with Burkholderia cepacia (48 hrs, read-out: MIC).
`CCCCCCCCCCCCOCCOCCOCCOCCO` [L4, Tetraethylene Glycol Monododecyl Ether]: the “MIC (%) volume/volume” value in experiment [1] was 0.06 % volume/volume; against Gram-negative species (Acinetobacter baumannii 19606), more than 4 % volume/volume; with Gram-negative species (Escherichia coli 10418), more than 4 % volume/volume; against Gram-negative species (Klebsiella pneumoniae 9528), more than 4 % volume/volume; in experiment [3], 0.03 % volume/volume; with Staphylococcus aureus, 0.03 % volume/volume. In experiment [1] (relatively low concentrations, 10000 cfu/spot), the “susceptibility of Stenotrophomonas maltophilia” value is reported as “susceptible”. The “Cytopathic effect (cpe)” value in experiment [2] (0.01 mM) and in [2] (0.1 mM) was “significantly reduced” in each case. The “cytopathic effect of the virus on the cells (overall)” value in experiment [2] (RSV A2 on A549 cells) is recorded as “can alleviate the cytopathic effect”.
Take `CCCCCCCCCCCCOCCO` [L1, Ethylene Glycol Monododecyl Ether]: the “MIC (%) volume/volume” value in experiment [1] is reported as 0.5 % volume/volume; against Gram-negative species (Acinetobacter baumannii 19606) it was 1 % volume/volume; in the experiment with Gram-negative species (Escherichia coli 10418), 0.25 % volume/volume; with Gram-negative species (Klebsiella pneumoniae 9528), 0.5 % volume/volume; in [3], 0.25 % volume/volume; in the experiment on Staphylococcus aureus it was 0.25 % volume/volume. Besides, in the experiment on Gram-negative species (at higher concentrations, 10000 cfu/spot), the “activity against selected Gram-negative species” value was “shows activity”.

The values above are taken from patent US20130165368A1, “ANTIMICROBIAL COMPOUNDS” (priority 2010, published 2013).
